Source: patent US20230220021A1, “CYCLIC PEPTIDE INHIBITORS OF PSD-95 AND USES THEREOF” (University of Copenhagen, priority 2020, published 2023)
pKi: −log10 of the molar value. Where a SMILES comes first, the peptide text is derived from it. [ ]: non-standard residue; d: D form.

Legend:
PSD-95-PDZ2 [1] = biological target: T1, PSD-95-PDZ2 (Homo sapiens, UniProt P78352, V178C); assay: SPOT peptide array screening with TAMRA labelled PSD-95-PDZ2; format: binding; settings: SPOT array, TAMRA labelled PSD-95-PDZ2-V178C, normalized to WT
T1 construct: screened with the TAMRA labelled PSD-95-PDZ2-V178C domain; 7xHis (N); made in house
Method: SPOT peptide array synthesis. To generate the cyclic nNOSβ-hairpin arrays, we used the Intavis MultiPep spotter (Intavis Bioanalytical instruments). The membranes employed in this assay were SynthoPlan APEG CE (standard amino-modified acid stable sellulose membrane with a PEG-spacer), 10×15 cm with a loading of 400 nmol cm^−2. Solutions of 0.3 M Fmoc-AA-OH and 0.3 M Oxyma Pure were prepared in N-methyl-2-pyrrolidone (NMP). The activator solution consisted of 0.3 M DIC and 0.3 M of 2,4,6-trimethylpyridine (Collidine) in NMP. The capping solution consisted of a solution of 1 M acetic anhydride and 0.05 M of 4-dimethylaminopyridine (DMAP) in NMP. The deprotection solution consisted of 20% piperidine in NMP. AA couplings were performed 1 h,4 times. Deprotection of the Fmoc groups was performed 15min,2 times. Membrane washing between couplings or deprotections was performed with NMP and ethanol. Elongation of peptides in cellulose membrane was started by coupling first the Fmoc-PEG(9)-OH (Iris Biotech) and the subsequent mixture of Fmoc-Gly-OH (25%) and Boc-Gly-OH (75%) to lower the total loading of the membrane. Afterwards, the resin was capped with the capping solution and extensively washed and soaked in bromophenol blue (BPB) as a quality control to reveal the SPOTS with a functional amino group. Then, we coupled the quasi-orthogonal group Fmoc-Glu-PP, and carried out the rest of the synthesis until peptide completion. The cellulose bound linear peptides were finally treated with a solution of 95% DCM, 3% TIPS and 2% TFA 3 times, 20 min. to remove the quasi-orthogonal group. Afterwards, the membrane was washed 5 times with DCM and neutralized with 5% DIPEA in DCM. The membrane was then washed 5 more times with DCM, 5 times with NMP and cyclized with 0.3M PyAOP and 0.3M of DIPEA in DMF for 3 h or overnight. Finally, the membrane was dried with DCM and the side-chain protecting groups were cleaved with the standard deprotection cocktail (95% TFA, 2.5% H2O and 2.5% TIPS) or with reagent K [TFA 82.5%, phenol 5%, H2O 5%, thioanisole 5% and 1,2-ethanedithiol (EDT) 2.5%] for 3 h.
SPOT membrane screening. Membranes were incubated with PBS pH 7.2+0.5% bovine serum albumin (BSA) for 1 h. After the incubation period, the membrane was dried and scanned with an Amershan Typhoon scanner, at 400V, Cy3 wavelength (532 nm). A TIF file of the screening and a file with the blank values were generated using the Image Quant software. Afterwards, a solution of 50 nM of TAMRA labelled PSD-95-PDZ2 domain was prepared in PBS pH 7.2+0.5% BSA and was added to the membrane. The membrane was left incubating in a Polymax 1040 rocking table for 1 h protected from the light. Passed the incubation time, the excess of labelled protein was removed by washing the membrane 3 times with PBS+0.5% BSA. Finally, the membrane fluorescence values were measured with the Amershan Typhoon scanner at 400V, Cy3 wavelength (532 nm). Using the Image Quant software, the TIF image of the screening and a file with the fluorescence values of the peptides with the TAMRA labelled PSD-95-PDZ2 were generated. The blank was then subtracted from the fluorescence values of the peptides screened against the TAMRA labelled PSD-95-PDZ2.
A deep mutational scan was performed on the WT scaffold, exchanging each AA to the remaining 19 L-AAs. Each array contained three copies of the individual peptides as technical replicates. Additionally, three controls were included in the design: the cyclic nNOS β-hairpin WT control (positive control), a linear nNOS peptide (cyclization control) and a cyclic nNOS β-hairpin with a F111V substitution (negative control previously tested in FP competition assays). For array screening, a mutation in PSD-95-PDZ2 residue V178 (PSD-95-PDZ2-V178C) was introduced, which was subsequently labelled with TAMRA maleimide. […]

PSD-95-PDZ2 [2] = biological target: T2, PSD-95-PDZ2 (Homo sapiens, UniProt P78352); assay: Fluorescence polarization (FP) competition assay against cyclic nNOS TAMRA probe; format: binding; settings: for pKi: FP competition, cyclic nNOS TAMRA probe, mean of triplicates, N.B. = not binding, read-out: Ki; for Relative Ki (Ki mut/Ki WT): FP inhibition constant normalized to WT value
T2 construct: 7xHis (N); made in house; host or cells: Escherichia coli B21 pLys (for the mutants, 'as previously described')

For `CC[C@H](C)[C@@H]1NC(=O)[C@H]([C@@H](C)O)NC(=O)[C@H](CCCCN)NC(=O)[C@@H]2CCCN2C(=O)[C@H](CC(=O)O)NC(=O)CNC(=O)[C@H](CC(=O)O)NC(=O)CNC(=O)[C@H]([C@@H](C)O)NC(=O)[C@H](Cc2ccccc2)NC(=O)[C@H]([C@@H](C)O)NC(=O)[C@H]([C@@H](C)O)NC(=O)[C@H](CCC(=O)O)NC(=O)[C@H](CC(C)C)NC(=O)[C@H](Cc2c[nH]cn2)NC(=O)[C@H]([C@@H](C)O)NC(=O)[C@H](CCC(N)=O)NC(=O)CNC(=O)[C@H]2CCCN2C(=O)[C@H](CCC(N)=O)NC(=O)[C@H]([C@@H](C)O)NC(=O)[C@H](C(C)C)NC(=O)[C@H](CCCNC(=N)N)NC1=O` [compound 32] (cyclo(THLETTFTGDGDPKTIRVTQ[dP]GQ)), the “Normalized SPOT fluorescence (Mut/WT)” value (PSD-95-PDZ2 [1]) was 1.85, the pKi (PSD-95-PDZ2 [2]) was 6.32 and the “Relative Ki (Ki mut/Ki WT)” value (PSD-95-PDZ2 [2]) was 0.32.
With `CC[C@H](C)[C@@H]1NC(=O)[C@H](C)NC(=O)[C@H](CCCCN)NC(=O)[C@@H]2CCCN2C(=O)[C@H]([C@@H](C)O)NC(=O)CNC(=O)[C@H](CC(=O)O)NC(=O)CNC(=O)[C@H]([C@@H](C)O)NC(=O)[C@H](Cc2ccccc2)NC(=O)[C@H]([C@@H](C)O)NC(=O)[C@H]([C@@H](C)O)NC(=O)[C@H](CCC(=O)O)NC(=O)[C@H](CC(C)C)NC(=O)[C@H](Cc2c[nH]cn2)NC(=O)[C@H]([C@@H](C)O)NC(=O)[C@H](CCC(N)=O)NC(=O)CNC(=O)[C@H]2CCCN2C(=O)[C@H](CCC(N)=O)NC(=O)[C@H]([C@@H](C)O)NC(=O)[C@H](C(C)C)NC(=O)[C@H](CCCNC(=N)N)NC1=O` [compound 69] (cyclo(THLETTFTGDGTPKAIRVTQ[dP]GQ)) the “Normalized SPOT fluorescence (Mut/WT)” value (PSD-95-PDZ2 [1]) was 0.09, the pKi (PSD-95-PDZ2 [2]) was 4.77 and the “Relative Ki (Ki mut/Ki WT)” value (PSD-95-PDZ2 [2]) was 11.33.
In the case of `CC[C@H](C)[C@@H]1NC(=O)[C@H]([C@@H](C)O)NC(=O)[C@H](CCCCN)NC(=O)[C@@H]2CCCN2C(=O)[C@H]([C@@H](C)O)NC(=O)CNC(=O)[C@H](CC(=O)O)NC(=O)CNC(=O)[C@H]([C@@H](C)O)NC(=O)[C@H](Cc2ccccc2)NC(=O)[C@H]([C@@H](C)O)NC(=O)[C@H]([C@@H](C)O)NC(=O)[C@H](CCC(=O)O)NC(=O)[C@H](CC(C)C)NC(=O)[C@H](Cc2c[nH]cn2)NC(=O)[C@H]([C@@H](C)O)NC(=O)[C@H](CCC(N)=O)NC(=O)CNC(=O)[C@H]2CCCN2C(=O)[C@H](CCC(N)=O)NC(=O)[C@H]([C@@H](C)O)NC(=O)[C@H](C(C)C)NC(=O)[C@H](C)NC1=O` [compound 71] (cyclo(THLETTFTGDGTPKTIAVTQ[dP]GQ)), the “Normalized SPOT fluorescence (Mut/WT)” value (PSD-95-PDZ2 [1]) was 0.15 and the “Relative Ki (Ki mut/Ki WT)” value (PSD-95-PDZ2 [2]) was 1.65.
With `CC[C@H](C)[C@@H]1NC(=O)[C@H]([C@@H](C)O)NC(=O)[C@H](CCCCN)NC(=O)[C@@H]2CCCN2C(=O)[C@H](C)NC(=O)CNC(=O)[C@H](CC(=O)O)NC(=O)CNC(=O)[C@H]([C@@H](C)O)NC(=O)[C@H](Cc2ccccc2)NC(=O)[C@H]([C@@H](C)O)NC(=O)[C@H]([C@@H](C)O)NC(=O)[C@H](CCC(=O)O)NC(=O)[C@H](CC(C)C)NC(=O)[C@H](Cc2c[nH]cn2)NC(=O)[C@H]([C@@H](C)O)NC(=O)[C@H](CCC(N)=O)NC(=O)CNC(=O)[C@H]2CCCN2C(=O)[C@H](CCC(N)=O)NC(=O)[C@H]([C@@H](C)O)NC(=O)[C@H](C(C)C)NC(=O)[C@H](CCCNC(=N)N)NC1=O` [compound 66] (cyclo(THLETTFTGDGAPKTIRVTQ[dP]GQ)) the “Normalized SPOT fluorescence (Mut/WT)” value (PSD-95-PDZ2 [1]) was 1.30 and the “Relative Ki (Ki mut/Ki WT)” value (PSD-95-PDZ2 [2]) was 0.83.
